Where a name gives a salt, the structure may show the parent alone.
biological target: T1, human recombinant HPK1 (Homo sapiens, UniProt Q92918); test: Inhibitory activity against human recombinant HPK1 (TR-FRET); assay type: biochemical; details: ULight-p70S6K peptide, ATP at Km, room temperature, 1 hour, 0.32 to 1000 nM compound
T1 construct: purchased BPS Bioscience
Summary of the method: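 IC50 classes A–D use 10, 50 and 100 nM cut-offs, derived from TR-FRET signal inhibition relative to DMSO controls. Human recombinant HPK1 phosphorylated ULight-p70S6K peptide at Km ATP for 1 h, room temperature, pH 7.4; test range 0.32–1000 nM final, detection with Eu-labelled antibody after EDTA quench.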

T1 sequence (Q92918 whole entry): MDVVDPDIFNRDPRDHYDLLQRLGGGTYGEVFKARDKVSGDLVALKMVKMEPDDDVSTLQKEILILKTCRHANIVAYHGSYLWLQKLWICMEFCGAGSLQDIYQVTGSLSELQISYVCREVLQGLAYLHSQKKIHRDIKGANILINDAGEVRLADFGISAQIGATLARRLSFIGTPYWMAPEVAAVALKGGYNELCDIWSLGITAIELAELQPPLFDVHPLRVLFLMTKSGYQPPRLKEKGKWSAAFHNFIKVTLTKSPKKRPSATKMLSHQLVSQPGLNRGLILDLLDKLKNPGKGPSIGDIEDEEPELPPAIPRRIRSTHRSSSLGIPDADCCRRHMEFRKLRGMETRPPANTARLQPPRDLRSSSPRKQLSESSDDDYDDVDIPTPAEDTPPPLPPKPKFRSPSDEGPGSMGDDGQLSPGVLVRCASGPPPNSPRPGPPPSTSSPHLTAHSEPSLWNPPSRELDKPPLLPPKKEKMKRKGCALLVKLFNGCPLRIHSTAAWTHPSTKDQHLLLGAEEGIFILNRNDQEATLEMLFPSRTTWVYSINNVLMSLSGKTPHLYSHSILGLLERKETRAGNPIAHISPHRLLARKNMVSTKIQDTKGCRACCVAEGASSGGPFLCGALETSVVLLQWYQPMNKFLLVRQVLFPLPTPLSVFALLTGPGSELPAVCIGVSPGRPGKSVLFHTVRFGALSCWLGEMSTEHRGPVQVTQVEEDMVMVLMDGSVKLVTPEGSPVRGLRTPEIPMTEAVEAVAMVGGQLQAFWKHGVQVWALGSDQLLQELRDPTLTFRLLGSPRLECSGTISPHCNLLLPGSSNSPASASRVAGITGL

Row | IC50 | Compound
1 | ≤ 10 nM | COc1cccc(F)c1-c1nccc(Nc2cc(N3CCC[C@H](N)C3)c(-c3cnn(CC4CNC4)c3)cn2)n1 [Example 237, (S)-N-(4-(3-aminopiperidin-1-yl)-5-(1-(azetidin-3-ylmethyl)-1H-pyrazol-4-yl)pyridin-2-yl)-2-(2-fluoro-6-methoxyphenyl)pyrimidin-4-amine hydrochloride]
2 | ≤ 10 nM | COc1cc(F)cc(F)c1-c1nccc(Nc2cc(N3C[C@@H](N)C[C@@H](F)C3)c(-c3cnn(CC(F)(F)F)c3)cn2)n1 [Example 324, N-(4-((3S,5R)-3-amino-5-fluoropiperidin-1-yl)-5-(2-(2,2,2-trifluoroethyl)-1H-pyrazol-4-yl)pyridin-2-yl)-2-(2,4-difluoro-6-methoxyphenyl)pyrimidin-4-amine]
3 | ≤ 10 nM | COc1cccc(F)c1-c1nccc(Nc2cc(N3CCC[C@H](N)C3)c(-c3cnn([C@@H]4CCOC4)c3)cn2)n1 [Example 299, N-(4-((S)-3-aminopiperidin-1-yl)-5-(1-((R)-tetrahydrofuran-3-yl)-1H-pyrazol-4-yl)pyridin-2-yl)-2-(2-fluoro-6-methoxyphenyl)pyrimidin-4-amine hydrochloride]
4 | ≤ 10 nM | COc1cccc(F)c1-c1nccc(N(CCN(C)C)c2cc(N3CCC[C@H](N)C3)c(-c3ccc(N)nc3)cn2)n1 [Example 240, (S)-4-(3-aminopiperidin-1-yl)-N^6-(2-(dimethylamino)ethyl)-N^6-(2-(2-fluoro-6-methoxyphenyl)pyrimidin-4-yl)-[3,3′-bipyridin]-6,6′-diamine hydrochloride]
5 | ≤ 10 nM | COc1cc(F)cc(F)c1-c1nccc(Nc2cc(N3CCC[C@H](N)C3)c(C#Cc3cnn(C(F)(F)F)c3)cn2)n1 [Example 159, (S)-N-(4-(3-aminopiperidin-1-yl)-5-((1-(trifluoromethyl)-1H-pyrazol-4-yl)ethynyl)pyridin-2-yl)-2-(2,4-difluoro-6-methoxyphenyl)pyrimidin-4-amine hydrochloride]
6 | ≤ 10 nM | CNC[C@@H]1CCCN(c2cc(Nc3ccnc(-c4c(F)cccc4OC)n3)ncc2-c2cnn(C(F)F)c2)C1 [Example 266, (S)-N-(5-(1-(difluoromethyl)-1H-pyrazol-4-yl)-4-(3-((methylamino)methyl)piperidin-1-yl)pyridin-2-yl)-2-(2-fluoro-6-methoxyphenyl)pyrimidin-4-amine hydrochloride]
7 | 50 to 100 nM | N[C@H]1CCCN(c2cc(Nc3cccc(N4CCOC4=O)n3)ncc2-c2ccc(N3CCOCC3)nc2)C1 [Example 138, (S)-3-(6-((4-(3-aminopiperidin-1-yl)-6′-morpholino-[3,3′-bipyridin]-6-yl)amino)pyridin-2-yl)oxazolidin-2-one hydrochloride]
8 | ≤ 10 nM | COc1cc(F)cc(F)c1-c1nc(Nc2cc(N3CCC[C@H](O)C3)c(-c3cnn(CC(F)F)c3)cn2)ccc1[N+](=O)[O-] [Example 223, (3S)-1-(2-((6-(2,4-difluoro-6-methoxyphenyl)-5-nitropyridin-2-yl)amino)-5-(1-(2,2-difluoroethyl)-1H-pyrazol-4-yl)pyridin-4-yl)piperidin-3-ol]
9 | ≤ 10 nM | 6-((6-(2-fluoro-6-methoxyphenyl)-5-nitropyridin-2-yl)amino)-N-((1R,3S)-3-hydroxycyclopentyl)-4-((S)-3-hydroxypiperidin-1-yl)nicotinamide [Example 195]
10 | ≤ 10 nM | COc1cccc(F)c1-c1nccc(Nc2cc(N3CCC[C@H](N)C3)c(-c3ccc(N4CCCC4=O)cc3)cn2)n1 [Example 259, (S)-1-(4-(4-(3-aminopiperidin-1-yl)-6-((2-(2-fluoro-6-methoxyphenyl)pyrimidin-4-yl)amino)pyridin-3-yl)phenyl)pyrrolidin-2-one hydrochloride]
11 | ≤ 10 nM | COc1cccc(F)c1-c1nc(Nc2cc(N3CCC[C@H](N)C3)c(-c3cnn(CC(F)F)c3)cn2)ccc1N [Example 169, N^2-(4-((S)-3-aminopiperidin-1-yl)-5-(1-(2,2-difluoroethyl)-1H-pyrazol-4-yl)pyridin-2-yl)-6-(2-fluoro-6-methoxyphenyl)pyridin-2,5-diamine hydrochloride]
12 | ≤ 10 nM | CNC[C@H]1CCCN(c2cc(Nc3ccnc(-c4c(F)cccc4OC)n3)ncc2-c2cnn(C(F)F)c2)C1 [Example 267, (R)-N-(5-(1-(difluoromethyl)-1H-pyrazol-4-yl)-4-(3-((methylamino)methyl)piperidin-1-yl)pyridin-2-yl)-2-(2-fluoro-6-methoxyphenyl)pyrimidin-4-amine hydrochloride]
13 | ≤ 10 nM | COc1cccc(F)c1-c1nccc(Nc2cc(N3CCC[C@H](N)C3)c(-c3ccc4c(c3)CCC(=O)N4C)cn2)n1 [Example 263, (S)-6-(4-(3-aminopiperidin-1-yl)-6-((2-(2-fluoro-6-methoxyphenyl)pyrimidin-4-yl)amino)pyridin-3-yl)-1-methyl-3,4-dihydroquinolin-2(1H)-one hydrochloride]
14 | ≤ 10 nM | COc1cc(F)cc(F)c1-c1nc(Nc2cc(N3CCC[C@H](N)C3)c(-c3cnn(CC(F)(F)F)c3)cn2)ccc1C#N [Example 320, 6-((4-((S)-3-aminopiperidin-1-yl)-5-(1-(2,2,2-trifluoroethyl)-1H-pyrazol-4-yl)pyridin-2-yl)amino)-2-(2,4-difluoro-6-methoxyphenyl)nicotinonitrile hydrochloride]

The remaining lines, values behind:

Row | Compound | IC50
15 | COc1cccc(F)c1-c1nccc(Nc2cc(N3CCC[C@H](O)C3)c(-c3ccc(N4CCOCC4)nc3)cn2)n1 [Example 20, (S)-1-(6-((2-(2-fluoro-6-methoxyphenyl)pyrimidin-4-yl)amino)-6′-morpholino-[3,3′-bipyridin]-4-yl)piperidin-3-ol] | ≤ 10 nM
16 | COc1cccc(F)c1-c1nccc(Nc2cc(N3CCC[C@H](N)C3)c(-c3cnn(C(F)F)c3)cn2)n1 [Example 73, (S)-N-(4-(3-aminopiperidin-1-yl)-5-(1-(difluoromethyl)-1H-pyrazol-4-yl)pyridin-2-yl)-2-(2-fluoro-6-methoxyphenyl)pyrimidin-4-amine hydrochloride] | ≤ 10 nM
17 | N[C@H]1CCCN(c2cc(Nc3cccc(N4CCOC4=O)n3)ncc2-c2cnn(C3CCOCC3)c2)C1 [Example 127, (S)-3-(6-((4-(3-aminopiperidin-1-yl)-5-(1-(tetrahydro-2H-pyran-4-yl)-1H-pyrazol-4-yl)pyridin-2-yl)amino)pyridin-2-yl)oxazolidin-2-one hydrochloride] | 10 to 50 nM
18 | COc1cccc(F)c1-c1nccc(Nc2cc(N3CCC[C@H](O)C3)c(-c3cnn(C4CCN(C)CC4)c3)cn2)n1 [Example 15, (S)-1-(2-((2-(2-fluoro-6-methoxyphenyl)pyrimidin-4-yl)amino)-5-(1-(1-methylpiperidin-4-yl)-1H-pyrazol-4-yl)pyridin-4-yl)piperidin-3-ol] | ≤ 10 nM
19 | COc1cccc(F)c1-c1nccc(Nc2cc(N3CCC[C@H](O)C3)c(-c3cnn(CC(F)(F)F)c3)cn2)n1 [Example 16, (S)-1-(2-((2-(2-fluoro-6-methoxyphenyl)pyrimidin-4-yl)amino)-5-(1-(2,2,2-trifluoroethyl)-1H-pyrazol-4-yl)pyridin-4-yl)piperidin-3-ol] | ≤ 10 nM
20 | COc1cccc(F)c1-c1nccc(Nc2cc(N3CC(O)C3)c(C(=O)C3CC3)cn2)n1 [Example 6, cyclopropyl(6-((2-(2-fluoro-6-methoxyphenyl)pyrimidin-4-yl)amino)-4-(3-hydroxyazetidin-1-yl)pyridin-3-yl)methanone] | 10 to 50 nM
21 | COC(=O)c1ccc(Nc2cc(N3CCC[C@H](N)C3)c(-c3cnn(C4CCOCC4)c3)cn2)nc1-c1c(F)cccc1OC [Example 71, methyl 6-((4-((S)-3-aminopiperidin-1-yl)-5-(1-(tetrahydro-2H-pyran-4-yl)-1H-pyrazol-4-yl)pyridin-2-yl)amino)-2-(2-fluoro-6-methoxyphenyl)nicotinate hydrochloride] | ≤ 10 nM
22 | COc1cccc(F)c1-c1nccc(Nc2cc(N3CCC[C@H](O)C3)c(-c3cnn(C(F)F)c3)cn2)n1 [Example 72, (S)-1-(5-(1-(difluoromethyl)-1H-pyrazol-4-yl)-2-((2-(2-fluoro-6-methoxyphenyl)pyrimidin-4-yl)amino)pyridin-4-yl)piperidin-3-ol] | ≤ 10 nM
23 | COc1cccc(F)c1-c1nccc(Nc2cc(N3CCC[C@H](N)C3)c(-c3ccc(N(C)C)nc3)cn2)n1 [Example 118, (S)-4-(3-aminopiperidin-1-yl)-N^6-(2-(2-fluoro-6-methoxyphenyl)pyrimidin-4-yl)-N^6′,N^6′-dimethyl-[3,3′-bipyridin]-6,6′-diamine hydrochloride] | ≤ 10 nM
24 | CN[C@@H]1CCCN(c2cc(Nc3ccnc(-c4c(F)cccc4OC)n3)ncc2-c2cnn(C(F)F)c2)C1 [Example 123, (R)-N-(5-(1-(difluoromethyl)-1H-pyrazol-4-yl)-4-(3-(methylamino)piperidin-1-yl)pyridin-2-yl)-2-(2-fluoro-6-methoxyphenyl)pyrimidin-4-amine hydrochloride] | 10 to 50 nM
25 | COc1cccc(F)c1-c1nc(Nc2cc(N3CCC[C@H](O)C3)c(-c3cnn(C4CCOCC4)c3)cn2)ccc1C [Example 58, (3S)-1-(2-((6-(2-fluoro-6-methoxyphenyl)-5-methylpyridin-2-yl)amino)-5-(1-(tetrahydro-2H-pyran-4-yl)-1H-pyrazol-4-yl)pyridin-4-yl)piperidin-3-ol] | > 100 nM
26 | O[C@H]1CCCN(c2cc(Nc3ccnc(-c4ccn5ncnc5c4)n3)ncc2-c2cnn(C3CCOCC3)c2)C1 [Example 26, (S)-1-(2-((2-([1,2,4]triazolo[1,5-a]pyridin-7-yl)pyrimidin-4-yl)amino)-5-(1-(tetrahydro-2H-pyran-4-yl)-1H-pyrazol-4-yl)pyridin-4-yl)piperidin-3-ol] | 50 to 100 nM
27 | COc1cc(CN(C)C)cc(F)c1-c1nccc(Nc2cc(N3CCC[C@H](N)C3)c(-c3cnn(C(F)F)c3)cn2)n1 [Example 104, (S)-N-(4-(3-aminopiperidin-1-yl)-5-(1-(difluoromethyl)-1H-pyrazol-4-yl)pyridin-2-yl)-2-(4-((dimethylamino)methyl)-2-fluoro-6-methoxyphenyl)pyrimidin-4-amine hydrochloride] | ≤ 10 nM
